In the experiment the test system is A549 (human lung cancer cell) xenograft. Description: Tumor regression effect in tumor-bearing mice by iTAP treatment (A549 cell line xenograft mouse). Type of experiment: in vivo, BALB/c Slc-nu/nu mice. As to conditions: Laserphyrin 5 mg/kg with 664 nm laser light 30 J/cm^2, IT-Cetuximab 3 mg/kg, alone or combined. The method, then:
Separately cultured A549 cells were adjusted to 1×10^7 cells/100 μL, and the cells were subcutaneously administered (SC) to the right thigh of 7-week-old male BALB/c Slc-nu/nu mice, and xenograft mice (tumor-bearing mice) were produced. Tumor size was calculated using the following formula.
Tumor volume (mm^3)=major axis (mm)×minor axis (mm)×minor axis (mm)×0.5
When the tumor size of the mice reached an average size of approximately 150 mm^3, the mice were randomly divided into the following groups (n=3). • Condition (1) Control group: No administration • Condition (2) Laserphyrin (5 mg/kg) administration and 664 nm laser light (30 J/cm^2) • irradiation group • Condition (3) IT-Cetuximab (3 mg/kg) administration group • Condition (4) Laserphyrin (5 mg/kg), IT-Cetuximab (3 mg/kg) administration and 664 nm laser light (30 J/cm^2) irradiation group
IT-Cetuximab was administered intraperitoneally to mice, and 2 days later, Laserphyrin was administered through the tail vein. Furthermore, 2 hours after the administration of Laserphyrin, the tumor site was locally irradiated with a 664 nm laser light.
Tumor size was measured every 3 to 5 days after administration.

We go through one compound from patent publication US20250000998A1, “MEDICAMENT FOR KILLING TUMOR CELLS” (PhotoQ3 Inc., priority 2021, published 2025).

With `C=Cc1c(C)c2cc3nc(c(CC(=O)N[C@@H](CC(=O)O)C(=O)O)c4[nH]c(cc5nc(cc1[nH]2)C(C)=C5CC)c(C)c4C(=O)O)[C@@H](CCC(=O)O)[C@@H]3C` [Laserphyrin, Talaporfin Sodium], the “macroscopic observation of the tumor” value is listed as “tumor growth was confirmed macroscopically”.
